A short description of series [1]: Rat pharmacokinetic assay. It is filed as in vivo. The procedure: Rat Pharmacokinetic Assay
Method: Reagent and Procedure by Hefei PreceDo Pharmaceuticals Co. Ltd.
Male Sprague-Dawley rats with 6-8 weeks of age were purchased from Beijing Vital River Laboratory Animal Technology Co., Ltd. Rats were randomly assigned with three rats per group. A single dose of compound 84 or 85 was administered by tail vein injection in iv group. In po group, compound 84 or 85 was orally. Blood samples (˜0.25 mL) were obtained by orbital venous plexus at 2 min (iv only), 5 min, 15 min, 1 h, 2 h, 4 h, 6 h, 8 h, 12 h and 24 h (po only) post dose. After centrifuged at 4000 rpm for 10 min at 4° C., plasma was collected and stored at −20° C. until determine by LC-MS/MS.

The target in series [2] is BMX (Homo sapiens (Human), UniProt P51813). Kind of series: In house ELISA kinase inhibition assay, BMX. It is filed as biochemical. The following applies: for IC50: in house ELISA; for Selectivity ratio: selectivity for BTK and BMX. As for the experimental part:
(§1) BTK inhibition Assay and selectivity Assay The assay was conducted either a by a third party (Reaction Biology Corporation, PA, USA) or in house.
(§2) b) In House Procedure for BTK, BMX, EGFR and ITK:
(§3) Kinase inhibitory activities of compounds were evaluated using the Enzyme-linked immunosorbent assay (ELISA). The kinase enzyme of BTK, BMX, EGFR and ITK were purchased from Carna Bioscience (Kobe, Japan). A total of 10 ng/mL antiphosphotyrosine (PY713) antibody (abcam, Cambridge Science Park, UK) was precoated in 96-well ELISA plates. The kinase enzymes in each reaction well were set to BTK (101.25 ng/mL), BMX (90 ng/mL), EGFR (90 ng/mL) or ITK (120 ng/mL) and incubated with indicated drugs in 1× reaction buffer (50 mmol/L HEPES pH 7.4, 20 mmol/L MgCl2, 0.1 mmol/L MnCl2, 1 mmol/L DTT) containing 20 μmol/L (the final concentration of substrate in ITK reaction was 30 μmol/L) substrate (NH2-[…]-biotin) at 25° C. for 1 h. Then, a total of 3 μmol/L ATP was added and the reaction was continued for 2 h. The products of reaction were transferred into 96-well ELISA plates containing antibody and incubated at 25° C. for 30 min. After incubation, the wells were washed with PBS and then incubated with horseradish peroxidase (HRP)-conjugated streptavidin. The wells were visualized using 3,3′,5,5′-tetramethylbenzidine (TMB), and chromogenic reaction was ended with 2 mol/L H2SO4, the absorbance was read with a multimode plate reader (PerkinElmer, USA) at 450 nm. IC50 values and curve fits were obtained using Prism (GraphPad Software). (Table I-IV)
(In general: In an ELISA, binding on a coated surface is turned into a signal by an enzyme label.)

The test system of series [3] is TMD-8. Kind of series: In-vitro antitumor activity assay (CellTiter-Glo cell antiproliferative activity). It is filed as cell-based. Conditions: Homo sapiens, TMD8, TMD-8 cells, 72 h. The procedure: In-Vitro Antitumor Activity Assay
Method: Reagent and procedure by Hefei PreceDo pharmaceuticals Co. Ltd.
Cell antiproliferative activity was evaluated by the CellTiter-Glo (Promega, USA) assay. Make 1000× compounds solution in DMSO, add 1 μl 1000× compounds to […] growth medium to make 20× compounds. Dilute cell suspensions in growth medium to desired density and 95 μl were taken to 96-well plate. Add 5 μl 20× compounds into 96-well plate according to the plate map. Final DMSO concentration in each well was 0.1%. Then the cell was incubated at 37° C., 5% CO2 for 72 h. Equilibrate the assay plate to room temperature before measurement. Add 20 μl of CellTiter-Glo© Reagent into each well. Mix contents for 2 minutes on an orbital shaker to induce cell lysis. Incubate at room temperature for 10 minutes to stabilize luminescent signal. Record luminescence using EnVision Multilabel Reader (PerkinElmer). Cell viability (CV %) was calculated relative to vehicle (DMSO) treated control wells using following formula: Cell viability (%)=(RLU compound−RLU blank)/(RLU control−RLU blank)*100%. The IC50 values were calculated using GraphPad Prism 6.0 software, fitting to a 4-parameter equation to generate concentration response curves. All assays were conducted with three parallel samples and three repetitions.

Series [4] addresses EGFR (Homo sapiens (Human), UniProt P00533). Kind of series: In house ELISA kinase inhibition assay, EGFR. Format: biochemical. Conditions: for IC50: in house ELISA; for Selectivity ratio: selectivity for BTK and EGFR. As for the experimental part:
as §1, §2, §3

The target in series [5] is ITK (Homo sapiens (Human), UniProt Q08881). Kind of series: In house ELISA kinase inhibition assay, ITK. It is filed as biochemical. Conditions: for IC50: in house ELISA; for Selectivity ratio: selectivity for BTK and ITK. The procedure: as §1, §2, §3
For series [6], the target named is T1, BTK (Homo sapiens (Human), UniProt Q06187). Kind of series: In house ELISA kinase inhibition assay, BTK. Format: biochemical. Conditions: footnote b: from in house procedure (ELISA). The procedure: as §1, §2, §3
Series [7] deals with T1, BTK. Kind of series: BTK inhibition assay by Reaction Biology Corporation (33P-ATP, filter-binding). It is filed as biochemical. The following applies: footnote a: from Reaction Biology Corporation. As for the experimental part:
as §1
a) Reagent and Procedure by Reaction Biology Corporation:
Base Reaction buffer; 20 mM Hepes (pH 7.5), 10 mM MgCl2, 1 mM EGTA, 0.02%. Brij35, 0.02 mg/ml BSA, 0.1 mM Na3VO4, 2 mM DTT, 1% DMSO. Required cofactors were added individually to each kinase reaction. Compound handling: testing compounds were dissolved in 100% DMSO to specific concentration. The serial dilution was conducted by Integra Viaflo Assist in DMSO.
The substrate was prepared in freshly prepared reaction buffer of above and required cofactors were added to the substrate solution. The kinase was delivered to the substrate solution and the mixture was gently mixed. Testing compounds in 100% DMSO was added to the kinase reaction mixture by Acoustic technology (Echo550; nanoliter range) and the new mixture was incubated for 20 min at room temperature. Then ^33P-ATP (Specific activity 10 μCi/μl) was added to the reaction mixture to initiate the reaction and the mixture was incubated for 2 hours at room temperature. The radioactivity was detected by filter-binding method and the kinase activity data was expressed as the percent of remaining kinase activity in test sample compared to vehicle (dimethyl sulfoxide) reaction. IC50 values and curve fits were obtained using Prism (GraphPad Software). The result is outlined in Table-I

The mark [8] stands for this setting: male, Sprague-Dawley, plasma, iv 5 mg/kg.

Read-outs that look alike come from different tables or passages of the source.

Sequence of EGFR (P00533 25-1210): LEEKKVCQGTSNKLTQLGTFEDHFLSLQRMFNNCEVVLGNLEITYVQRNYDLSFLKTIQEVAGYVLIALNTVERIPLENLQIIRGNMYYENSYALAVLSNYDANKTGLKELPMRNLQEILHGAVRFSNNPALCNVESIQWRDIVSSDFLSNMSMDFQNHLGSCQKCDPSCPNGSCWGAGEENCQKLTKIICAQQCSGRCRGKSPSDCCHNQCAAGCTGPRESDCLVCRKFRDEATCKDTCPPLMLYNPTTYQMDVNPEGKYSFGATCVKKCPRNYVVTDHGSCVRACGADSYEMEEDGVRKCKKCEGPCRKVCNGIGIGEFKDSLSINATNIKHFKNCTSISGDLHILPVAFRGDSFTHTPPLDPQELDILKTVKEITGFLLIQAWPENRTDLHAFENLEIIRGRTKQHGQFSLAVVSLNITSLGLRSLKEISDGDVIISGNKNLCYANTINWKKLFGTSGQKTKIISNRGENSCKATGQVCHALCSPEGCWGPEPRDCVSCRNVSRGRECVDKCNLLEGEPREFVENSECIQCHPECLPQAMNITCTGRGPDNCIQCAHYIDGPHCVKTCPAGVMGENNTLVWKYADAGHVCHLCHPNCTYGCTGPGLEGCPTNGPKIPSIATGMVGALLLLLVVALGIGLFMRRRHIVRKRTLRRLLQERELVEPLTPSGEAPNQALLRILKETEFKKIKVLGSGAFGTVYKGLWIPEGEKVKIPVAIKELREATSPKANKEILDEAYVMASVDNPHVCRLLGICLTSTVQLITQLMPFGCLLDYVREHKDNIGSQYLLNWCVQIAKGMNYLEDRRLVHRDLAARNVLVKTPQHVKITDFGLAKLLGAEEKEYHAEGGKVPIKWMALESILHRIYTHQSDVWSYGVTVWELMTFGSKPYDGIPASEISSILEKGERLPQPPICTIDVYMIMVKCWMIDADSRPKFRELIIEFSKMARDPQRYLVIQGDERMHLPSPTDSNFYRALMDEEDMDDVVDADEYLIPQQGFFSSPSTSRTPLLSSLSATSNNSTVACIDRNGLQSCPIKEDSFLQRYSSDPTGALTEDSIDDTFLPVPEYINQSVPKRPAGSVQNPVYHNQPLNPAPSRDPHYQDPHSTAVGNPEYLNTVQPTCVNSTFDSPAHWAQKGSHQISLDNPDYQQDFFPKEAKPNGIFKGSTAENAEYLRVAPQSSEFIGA
Sequence of BMX (P51813 whole entry): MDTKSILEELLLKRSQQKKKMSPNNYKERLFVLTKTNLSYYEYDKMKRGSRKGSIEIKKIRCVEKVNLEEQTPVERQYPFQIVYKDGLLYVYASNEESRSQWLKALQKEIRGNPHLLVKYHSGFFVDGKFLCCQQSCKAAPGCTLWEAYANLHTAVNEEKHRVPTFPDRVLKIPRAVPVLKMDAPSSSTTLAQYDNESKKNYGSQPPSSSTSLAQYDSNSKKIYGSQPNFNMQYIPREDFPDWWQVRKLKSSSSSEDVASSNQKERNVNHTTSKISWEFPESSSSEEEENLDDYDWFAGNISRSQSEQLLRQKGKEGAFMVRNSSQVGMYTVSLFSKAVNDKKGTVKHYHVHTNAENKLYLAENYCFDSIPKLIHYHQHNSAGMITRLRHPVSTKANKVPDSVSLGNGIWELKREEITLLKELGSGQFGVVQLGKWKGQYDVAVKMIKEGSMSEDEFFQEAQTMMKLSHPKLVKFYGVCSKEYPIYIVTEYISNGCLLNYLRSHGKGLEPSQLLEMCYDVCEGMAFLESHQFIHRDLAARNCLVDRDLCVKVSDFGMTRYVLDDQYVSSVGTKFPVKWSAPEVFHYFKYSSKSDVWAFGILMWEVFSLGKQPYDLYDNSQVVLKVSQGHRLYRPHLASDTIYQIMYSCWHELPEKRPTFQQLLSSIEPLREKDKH
Sequence of ITK (Q08881 whole entry): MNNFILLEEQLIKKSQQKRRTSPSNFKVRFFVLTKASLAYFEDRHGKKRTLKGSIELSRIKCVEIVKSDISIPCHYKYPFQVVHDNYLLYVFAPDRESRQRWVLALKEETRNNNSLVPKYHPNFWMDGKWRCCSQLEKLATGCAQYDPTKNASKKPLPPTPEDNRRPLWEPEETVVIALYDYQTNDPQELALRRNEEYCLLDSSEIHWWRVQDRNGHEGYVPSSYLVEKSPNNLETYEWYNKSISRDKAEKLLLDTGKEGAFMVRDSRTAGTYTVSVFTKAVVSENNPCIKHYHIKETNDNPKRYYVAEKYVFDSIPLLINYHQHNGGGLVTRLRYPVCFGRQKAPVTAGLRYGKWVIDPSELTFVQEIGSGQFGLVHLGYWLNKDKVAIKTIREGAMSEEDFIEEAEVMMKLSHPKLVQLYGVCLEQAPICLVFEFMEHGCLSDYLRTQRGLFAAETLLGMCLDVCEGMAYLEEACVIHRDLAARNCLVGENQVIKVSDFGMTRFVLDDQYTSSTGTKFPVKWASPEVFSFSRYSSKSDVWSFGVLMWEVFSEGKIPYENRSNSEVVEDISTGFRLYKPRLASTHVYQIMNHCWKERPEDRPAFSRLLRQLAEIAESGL
T1 sequence (Q06187 whole entry): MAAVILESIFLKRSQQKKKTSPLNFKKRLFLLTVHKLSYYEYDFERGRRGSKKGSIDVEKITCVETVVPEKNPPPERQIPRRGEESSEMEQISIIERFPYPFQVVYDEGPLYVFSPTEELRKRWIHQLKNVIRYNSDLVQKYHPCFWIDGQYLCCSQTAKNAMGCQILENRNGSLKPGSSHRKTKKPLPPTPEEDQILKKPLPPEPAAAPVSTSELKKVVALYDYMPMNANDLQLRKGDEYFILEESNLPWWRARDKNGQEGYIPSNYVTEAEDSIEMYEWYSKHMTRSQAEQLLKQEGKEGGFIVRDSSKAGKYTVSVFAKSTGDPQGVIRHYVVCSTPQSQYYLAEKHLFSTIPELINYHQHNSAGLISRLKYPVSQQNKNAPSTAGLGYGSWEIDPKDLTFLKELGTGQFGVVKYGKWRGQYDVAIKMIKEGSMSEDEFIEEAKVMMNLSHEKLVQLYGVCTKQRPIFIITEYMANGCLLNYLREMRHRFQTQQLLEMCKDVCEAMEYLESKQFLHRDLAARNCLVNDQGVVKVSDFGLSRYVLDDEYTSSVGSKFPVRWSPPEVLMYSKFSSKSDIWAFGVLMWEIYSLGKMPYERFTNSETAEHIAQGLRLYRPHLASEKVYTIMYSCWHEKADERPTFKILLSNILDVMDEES

As to `C=CC(=O)N1CCCC[C@H]1c1nc(-c2ccc(C(=O)Nc3cc(C(F)(F)F)ccn3)cc2)c(C(N)=O)n1N` [Example 84, (S)-2-(1-acryloylpiperidin-2-yl)-1-amino-4-(4-((4-(trifluoromethyl)pyridin-2-yl)carbamoyl)phenyl)-1H-imidazole-5-carboxamide], in series [1] (iv 5 mg/kg), the CL was determined as 13.4 mL/min/kg, the T1/2 is 1.32 h and the distribution volume (Vd) is reported as 1.50 L/kg. In series [1] (setting [8]), this compound showed a clearance of 13.4 mL/min/kg and a half-life of 1.32 h. Further, the AUC in series [1] (male, Sprague-Dawley, plasma, po 5 mg/kg, read-out: AUC) came to 2000 ng·h/mL. Besides, the Cmax in series [1] (male, Sprague-Dawley, plasma, po 5 mg/kg, read-out: Cmax) turned out to be 501 ng/mL. In addition, in series [1] (po 5 mg/kg), the AUC was 1996 ng·h/mL, the Cmax is reported as 501 ng/mL, the F is 32.4% and the T1/2 stood at 1.35 h. In series [2], the IC50 was 114 nM and the Selectivity ratio came to 33.0. Besides, in series [3], inhibition was half-maximal at 24.5 nM (IC50). In addition, in series [4], the half-inhibitory concentration (IC50) was 156 nM and the Selectivity ratio is 45. In series [5], 608 nM corresponded to half-maximal inhibition (IC50) and the Selectivity ratio worked out at 175.6. The same compound came in with a 50% inhibitory concentration (IC50) in series [6] of 3.46 nM.
Consider `CC#CC(=O)N1CCCC[C@H]1c1nc(-c2ccc(C(=O)Nc3cc(Cl)ccn3)cc2)c(C(N)=O)n1N` [Example 98, (S)-1-amino-2-(1-(but-2-ynoyl)piperidin-2-yl)-4-(4-((4-chloropyridin-2-yl)carbamoyl)phenyl)-1H-imidazole-5-carboxamide], for which the IC50 in series [2] stood at 1080 nM; in series [3], 37 nM; in series [4], 3980 nM; in series [5], 16500 nM; in series [6], 19.4 nM. In addition, the figures for the Selectivity ratio in series [2], in series [4] and in series [5] were 55.8, 206 and 850, respectively.
Take `C#CC(=O)N1CCC[C@H]1c1nc(-c2ccc(C(=O)Nc3ccc(C)cn3)cc2)c(C(N)=O)n1N` [Example 26, (S)-1-amino-4-(4-((5-methylpyridin-2-yl)carbamoyl)phenyl)-2-(1-propioloylpyrrolidin-2-yl)-1H-imidazole-5-carboxamide]: the IC50 in series [7] was 12.5 nM; in series [6], 18.4 nM.
Take `CC#CC(=O)N1CCCC[C@H]1c1nc(-c2ccc(C(=O)Nc3cc(-c4ccc(F)cc4)ccn3)cc2)c(C(N)=O)n1N` [Example 92, (S)-1-amino-2-(1-(but-2-ynoyl)piperidin-2-yl)-4-(4-((4-(4-fluorophenyl)pyridin-2-yl)carbamoyl)phenyl)-1H-imidazole-5-carboxamide]: the half-inhibitory concentration (IC50) in series [2] worked out at 154 nM; in series [3] it was 90.8 nM; in series [4], 1090 nM; in series [5], 33100 nM; in series [7], 14.7 nM. In addition, the Selectivity ratio is recorded as 10.5 in series [2], 74 in series [4] and 2255 in series [5].
For `C=CC(=O)N1CCCC[C@H]1c1nc(-c2ccc(C(=O)Nc3cc(Cl)ccn3)cc2)c(C(N)=O)n1N` [Example 72, (S)-2-(1-acryloylpiperidin-2-yl)-1-amino-4-(4-((4-chloropyridin-2-yl)carbamoyl)phenyl)-1H-imidazole-5-carboxamide], the 50% inhibitory concentration (IC50) was 19 nM in series [3], 10.1 nM in series [7] and 11.2 nM in series [6].
In the case of `C#CC(=O)N1CCC[C@H]1c1nc(-c2ccc(C(=O)Nc3cc(C)ccn3)cc2)c(C(N)=O)n1N` [Example 17, (S)-1-amino-4-(4-((4-methylpyridin-2-yl)carbamoyl)phenyl)-2-(1-propioloylpyrrolidin-2-yl)-1H-imidazole-5-carboxamide], the values for the half-inhibitory concentration (IC50) in series [7] and in series [6] were 24.4 nM and 30.3 nM, respectively.
Consider `C=CC(=O)N1CCC[C@H]1c1nc(-c2ccc(C(=O)Nc3ccccn3)cc2)c(C(N)=O)n1N` [Example 1, (S)-2-(1-acryloylpyrrolidin-2-yl)-1-amino-4-(4-(pyridin-2-yl-carbamoyl)phenyl)-1H-imidazole-5-carboxamide], for which the concentration for half-maximal inhibition (IC50) in series [7] was determined as 131 nM; in series [6], 176 nM.
For `CC#CC(=O)N1CCCC[C@H]1c1nc(-c2ccc(C(=O)Nc3cc(I)ccn3)cc2)c(C(N)=O)n1N` [Example 90, (S)-1-amino-2-(1-(but-2-ynoyl)piperidin-2-yl)-4-(4-((4-iodopyridin-2-yl)carbamoyl)phenyl)-1H-imidazole-5-carboxamide], the IC50 came out at 226 nM in series [2]; 35.1 nM in series [3]; 4680 nM in series [4]; 532 nM in series [5]; 10.7 nM in series [7]. The Selectivity ratio in series [2] came to 21.2; in series [4] it was 439; in series [5], 49.9.
On to `C=CC(=O)N1CCCC[C@H]1c1nc(-c2ccc(C(=O)Nc3cc(C(C)C)ccn3)cc2)c(C(N)=O)n1N` [Example 71, (S)-2-(1-acryloylpiperidin-2-yl)-1-amino-4-(4-((4-isopropylpyridin-2-yl)carbamoyl)phenyl)-1H-imidazole-5-carboxamide], for which the IC50 in series [7] came to 55.1 nM; in series [6] it was 22.6 nM.
On the same counts, the results for `C=CC(=O)N1CCCC[C@H]1c1nc(-c2ccc(C(=O)Nc3ccccn3)cc2)c(C(N)=O)n1N` [Example 46, (S)-2-(1-acryloylpiperidin-2-yl)-1-amino-4-(4-(pyridin-2-ylcarbamoyl)phenyl)-1H-imidazole-5-carboxamide] are 44.6 nM and 13.1 nM.
As to `CC#CC(=O)N1CCC[C@H]1c1nc(-c2ccc(C(=O)Nc3cc(C)ccn3)cc2)c(C(N)=O)n1N` [Example 18, (S)-1-amino-2-(1-(but-2-ynoyl)pyrrolidin-2-yl)-4-(4-((4-methylpyridin-2-yl)carbamoyl)phenyl)-1H-imidazole-5-carboxamide], the values for the IC50 in series [7] and in series [6] were 7200 nM and 3080 nM, respectively.

Usually Vd stands for the apparent volume that relates the amount in the body to the concentration in plasma or blood. Read a high Vd as extensive tissue distribution. As usually defined, the clearance is the rate of elimination divided by the concentration. A lower clearance goes with a low capacity for elimination. As usually defined, the half-life is the time in which the quantity being followed falls by half. As a reminder, the AUC is concentration integrated over time. By Cmax is commonly meant the peak of the concentration-time curve. The term IC50 denotes the point on the concentration scale where inhibition reaches its midpoint. Read a high IC50 as weaker potency in that assay.

Values taken from patent publication US12291516B2, “Substituted 1-amino-1H-imidazole-5-carboxamide as Bruton's tyrosine kinase inhibitors” (Henan Zhiwei Biomedicine Co., Ltd., priority 2019, dated 2025).
